Data from ChEMBL document CHEMBL1130484, “Tricyclic -lactams: Total synthesis and antibacterial activity of 5-methoxyethyl and 5-hydroxyethyl trinems” (1997).
≈ marks a conversion by molar mass, not a printed value.

Columns and labels:
Assay type in all cases: functional
Escherichia coli [1] = assay: In vitro antibacterial activity of compound against Escherichia coli 1852E PM was determined
Pseudomonas aeruginosa [2] = assay: In vitro antibacterial activity of compound against Pseudomonas aeruginosa 2033E PER
Staphylococcus aureus [3] = assay: In vitro antibacterial activity of compound against Staphylococcus aureus 853E PEN-R
Pseudomonas aeruginosa [4] = assay: In vitro antibacterial activity of compound against Pseudomonas aeruginosa 2032E WT was determined
Haemophilus influenzae = assay: In vitro antibacterial activity of compound against Haemophilus influenzae ATCC 49247 was determined
Pseudomonas aeruginosa [5] = assay: In vitro antibacterial activity of compound against Pseudomonas aeruginosa 1911E was determined
Escherichia coli [6] = assay: In vitro antibacterial activity of compound against Escherichia coli 1850E WT was determined
Escherichia coli [7] = assay: In vitro antibacterial activity of compound against Escherichia coli 851E was determined
Streptococcus pneumoniae = assay: In vitro antibacterial activity of compound against Streptococcus pneumoniae 3512 was determined
Enterobacter cloacae = assay: In vitro antibacterial activity of compound against Enterobacter cloacae 3647 was determined
Klebsiella pneumoniae = assay: In vitro antibacterial activity of compound against Klebsiella pneumoniae 3226 was determined
Proteus mirabilis = assay: In vitro antibacterial activity of compound against Proteus mirabilis 3558 was determined
Escherichia coli [8] = assay: In vitro antibacterial activity of compound against Escherichia coli 1919E PM/TEM-1 was determined
Bacteroides fragilis = assay: In vitro antibacterial activity of compound against Bacteroides fragilis 2017E was determined
Staphylococcus aureus [9] = assay: In vitro antibacterial activity of compound against Staphylococcus aureus 11311 MET-R
Staphylococcus aureus [10] = assay: In vitro antibacterial activity of compound against Staphylococcus aureus 663 PEN-S
Enterococcus faecalis = assay: In vitro antibacterial activity of compound against Enterococcus faecalis 850
Clostridium perfringens = assay: In vitro antibacterial activity of compound against Clostridium perfringens 615E was determined

| SMILES | MIC (Escherichia coli [1]) | MIC (Pseudomonas aeruginosa [2]) | MIC (Staphylococcus aureus [3]) | MIC (Pseudomonas aeruginosa [4]) | MIC (Haemophilus influenzae) | MIC (Pseudomonas aeruginosa [5]) | MIC (Escherichia coli [6]) | MIC (Escherichia coli [7]) | MIC (Streptococcus pneumoniae) | MIC (Enterobacter cloacae) | MIC (Klebsiella pneumoniae) | MIC (Proteus mirabilis) | MIC (Escherichia coli [8]) | MIC (Bacteroides fragilis) | MIC (Staphylococcus aureus [9]) | MIC (Staphylococcus aureus [10]) | MIC (Enterococcus faecalis) | MIC (Clostridium perfringens) |
| --- | --- | --- | --- | --- | --- | --- | --- | --- | --- | --- | --- | --- | --- | --- | --- | --- | --- | --- |
| C[C@@H](O)[C@H]1C(=O)N2C(C(=O)O)=C(SCCNC=N)C[C@H]12 [IMIPENEM ANHYDROUS] | 0.5 µg/mL (≈ 1.67 µM) | 0.2 µg/mL (≈ 0.668 µM) | 0.06 µg/mL (≈ 0.2 µM) | 4 µg/mL (≈ 13.4 µM) | 1 µg/mL (≈ 3.34 µM) | 4 µg/mL (≈ 13.4 µM) | 0.5 µg/mL (≈ 1.67 µM) | 0.5 µg/mL (≈ 1.67 µM) | < 0.01 µg/mL | 2 µg/mL (≈ 6.68 µM) | 0.5 µg/mL (≈ 1.67 µM) | 8 µg/mL (≈ 26.7 µM) | 0.5 µg/mL (≈ 1.67 µM) | 0.2 µg/mL (≈ 0.668 µM) | > 32 µg/mL | 0.06 µg/mL (≈ 0.2 µM) | 4 µg/mL (≈ 13.4 µM) | 0.2 µg/mL (≈ 0.668 µM) |
| C[C@@H](O)[C@H]1C(=O)N2C(C(=O)O)=C3C[C@@H](CCO)CC[C@@H]3[C@H]12 | 2 µg/mL (≈ 6.77 µM) | 4 µg/mL (≈ 13.5 µM) | 0.5 µg/mL (≈ 1.69 µM) | > 32 µg/mL | 1 µg/mL (≈ 3.39 µM) | > 32 µg/mL | 2 µg/mL (≈ 6.77 µM) | 1 µg/mL (≈ 3.39 µM) | 0.25 µg/mL (≈ 0.846 µM) | 4 µg/mL (≈ 13.5 µM) | 2 µg/mL (≈ 6.77 µM) | 8 µg/mL (≈ 27.1 µM) | 2 µg/mL (≈ 6.77 µM) | 16 µg/mL (≈ 54.2 µM) | > 32 µg/mL | 0.25 µg/mL (≈ 0.846 µM) | 4 µg/mL (≈ 13.5 µM) | 4 µg/mL (≈ 13.5 µM) |
| COCC[C@H]1CC[C@H]2C(=C(C(=O)O)N3C(=O)[C@H]([C@@H](C)O)[C@@H]23)C1 | 1 µg/mL (≈ 3.23 µM) | 16 µg/mL (≈ 51.7 µM) | 1 µg/mL (≈ 3.23 µM) | > 32 µg/mL | 4 µg/mL (≈ 12.9 µM) | > 32 µg/mL | 8 µg/mL (≈ 25.9 µM) | 8 µg/mL (≈ 25.9 µM) | 0.12 µg/mL (≈ 0.388 µM) | 32 µg/mL (≈ 103 µM) | 4 µg/mL (≈ 12.9 µM) | 8 µg/mL (≈ 25.9 µM) | 2 µg/mL (≈ 6.46 µM) | 16 µg/mL (≈ 51.7 µM) | > 32 µg/mL | 0.5 µg/mL (≈ 1.62 µM) | 8 µg/mL (≈ 25.9 µM) | 2 µg/mL (≈ 6.46 µM) |
| CO[C@H]1CCC[C@H]2C1=C(C(=O)[O-])N1C(=O)[C@H]([C@@H](C)O)[C@@H]21.[Na+] [SANFETRINEM SODIUM] |  |  | 0.2 µg/mL |  |  | > 32 µg/mL | 0.5 µg/mL |  | 0.01 µg/mL |  |  |  | 0.5 µg/mL | 0.06 µg/mL |  |  | 1 µg/mL | 0.03 µg/mL |
| CO[C@H]1CC[C@H]2C(=C(C(=O)O)N3C(=O)[C@H]([C@@H](C)O)[C@@H]23)C1 | 1 µg/mL (≈ 3.55 µM) | 16 µg/mL (≈ 56.9 µM) | 1 µg/mL (≈ 3.55 µM) | > 32 µg/mL | 4 µg/mL (≈ 14.2 µM) | > 32 µg/mL | 8 µg/mL (≈ 28.4 µM) | 8 µg/mL (≈ 28.4 µM) | 0.12 µg/mL (≈ 0.427 µM) | 32 µg/mL (≈ 114 µM) | 4 µg/mL (≈ 14.2 µM) | 8 µg/mL (≈ 28.4 µM) | 2 µg/mL (≈ 7.11 µM) | 16 µg/mL (≈ 56.9 µM) | > 32 µg/mL | 0.5 µg/mL (≈ 1.78 µM) | 8 µg/mL (≈ 28.4 µM) | 2 µg/mL (≈ 7.11 µM) |
